Assay [1] concerns the target T1, Adrenergic receptor beta (Rattus norvegicus, UniProt P18090+P10608+P26255). Briefly: Beta-adrenergic agonistic activity in rat uterus preincubated with phenoxybenzamine (12 uM) for 30 min. The assay is classed as functional, tissue-based.
Assay [2] deals with Adrenergic receptor beta (Homo sapiens, UniProt P08588+P07550+P13945). Briefly: Beta-adrenergic agonistic activity in guinea-pig atrium preincubated with phenoxybenzamine (12 uM) for 30 min. Conditions: target entry is the homologue from another species. The assay is classed as functional, tissue-based, Cavia porcellus, Cardiac atrium.
Assay [3] has as its target T1, Adrenergic receptor beta. Briefly: Beta-adrenergic agonistic activity in rat proximal colon. It counts as functional.
The target in assay [4] is T1, Adrenergic receptor beta. Briefly: Beta-adrenergic agonistic activity in rat proximal colon in presence of phentolamine (10 uM), desmethylimipramine (0.5 uM) and hydrocortisone (30 uM). The assay is classed as functional, tissue-based.

As to `CCOC(=O)CCc1ccc2c(c1)CC(NCC(O)c1cccc(Cl)c1)CC2.Cl` (stereo not drawn), the 50% inhibitory concentration (IC50) stood at 350 nM on Adrenergic receptor beta [1] and 21 nM on Adrenergic receptor beta [3]. The concentration giving a half-maximal response (EC50) at Adrenergic receptor beta [2] is > 30000 nM.
Consider `CCOC(=O)COc1ccc2c(c1)C[C@@H](NC[C@H](O)c1cccc(Cl)c1)CC2.Cl` [AMIBEGRON HYDROCHLORIDE], for which the IC50 on Adrenergic receptor beta [4] is on record as 3.5 nM; on Adrenergic receptor beta [1], 499 nM. For the same compound, the EC50 at Adrenergic receptor beta [2] is recorded as > 30000 nM.
In the case of `CCOC(=O)CCc1ccc2c(c1)C[C@H](NC[C@H](O)c1cccc(Cl)c1)CC2.Cl`, the figures for the concentration for half-maximal inhibition (IC50) on Adrenergic receptor beta [4] and on Adrenergic receptor beta [1] were 0.9 nM and 480 nM, respectively. The concentration giving a half-maximal response (EC50) on Adrenergic receptor beta [2] is on record as > 30000 nM.
`CCOC(=O)c1ccc2c(c1)CC(NCC(O)c1cccc(Cl)c1)CC2.Cl` (stereo not drawn): the IC50 amounted to 185 nM on Adrenergic receptor beta [1] and 90 nM on Adrenergic receptor beta [3]. Further, the EC50 on Adrenergic receptor beta [2] is recorded as > 30000 nM.
On to `CCOC(=O)COc1ccc2c(c1)C[C@@H](NC[C@H](O)c1cccc(Cl)c1)CC2.Cl` (mixture of isomers) [AMIBEGRON HYDROCHLORIDE], for which the concentration for half-maximal inhibition (IC50) is 1200 nM at Adrenergic receptor beta [1] and 47 nM at Adrenergic receptor beta [3]. The EC50 on Adrenergic receptor beta [2] is on record as > 30000 nM.
Take `CCOC(=O)CCc1ccc2c(c1)C[C@@H](NC[C@H](O)c1cccc(Cl)c1)CC2.Cl`: the IC50 at Adrenergic receptor beta [4] was 1.09 nM; at Adrenergic receptor beta [1] it was 319 nM. In addition, the concentration giving a half-maximal response (EC50) on Adrenergic receptor beta [2] is recorded as > 30000 nM.

These data come from ChEMBL document CHEMBL1127944, “Synthesis of the potent and selective atypical -adrenergic agonist SR 59062A” (Bioorg Med Chem Lett, 1994).
